This test concerns conscious dogs. The test is described as follows: Effects of regadenoson on HR and CBF before and after metoprolol in conscious dogs. It is filed as in vivo, dog. Conditions: for Reg-induced tachycardia after metoprolol, % of control: metoprolol 1.5 mg/kg IV; for reduction of Reg-induced coronary vasodilation from control: metoprolol 1.5 mg/kg. How it is done:
Five mongrel dogs were chronically instrumented for measurements of systemic hemodynamics and coronary blood flow (CBF). The effects of regadenoson (1, 2.5 and 5 μg/kg, IV) on HR and CBF were assessed before and after administration of the β1-adrenergic receptor blocker metoprolol (1.5 mg/kg). Values of peak CBF and the duration of the two-fold increase in CBF above baseline were used to assess Reg-induced coronary vasodilation.

As to `COCCc1ccc(OCC(O)CNC(C)C)cc1` (stereo not drawn) [metoprolol], the “Reg-induced tachycardia after metoprolol, % of control” value runs as follows: (Reg 1 μg/kg IV) 55±12 % of control; (Reg 2.5 μg/kg IV) 54±7 % of control; (Reg 5 μg/kg IV) 45±4 % of control. The “reduction of Reg-induced coronary vasodilation from control” value by setting is: (Reg 1 μg/kg IV) 11±7%; (Reg 2.5 μg/kg IV) 10±4%; (Reg 5 μg/kg IV) 21±2%.

The values above are taken from US20100086483A1, “METHOD OF MULTIDETECTOR COMPUTED TOMAGRAPHY” (Gilead Palo Alto, Inc., priority 2008, published 2010).
